Here are results for 85 compounds from PubChem BioAssay AID2305 (GlaxoSmithKline (GSK), 2010).

Each structure is given as a SMILES string. Several values for one entry are separate records, joined by “and”; a condition that tells them apart may be missing. Equal values may be shown once. Where a SMILES comes first, the peptide text is derived from it.

A word on the IC50: it is the point on the concentration scale where inhibition reaches its midpoint.

The subject of this assay is P. falciparum 3D7 growth, pLDH absorbance. The experiment in a line: P. falciparum 3D7 growth inhibition, dose response, strain 3D7 (AID 2305).

On to `CC(C)CNCc1cccc(-c2ccc(CNc3ccc(C(=O)c4ccccc4)cc3)cc2)c1`, for which the IC50 stood at 0.76 µM.
In the case of `CCOc1cc(C(=O)NCc2cccc(C(F)(F)F)c2)ccc1-c1nc2ccc(Cl)cc2[nH]1` it was 0.98 µM; in that of `Nc1ncc(-c2ccc(F)cc2)c2ccc(-c3cccc(F)c3)cc12`, 0.23 µM.
In the case of `COc1ccc(C(=O)NCC(C)(C)c2nc(-c3ccc(Cl)c(O)c3)c(-c3ccncc3)[nH]2)cc1OCCN(C(C)C)C(C)C` it was 0.64 µM.
In the case of `O=C(Nc1cc(Cl)c(Cl)cc1NC(=O)c1cccc(-c2ccccc2)c1O)c1cccc(-c2ccccc2)c1O` it was 0.51 µM.
With `O=C(NCC1CCC(C(=O)NCc2cccc3ccccc23)CC1)c1ccc(O)c(-c2ccc(Cl)c(Cl)c2)c1` (stereo not given), the IC50 worked out at 0.75 µM.
In the case of `COc1ccc2c(NN=Cc3ccccc3F)cc(C)nc2c1` it was 1 µM; in that of `Cc1cc(NN=Cc2ccccc2Cl)c2ccccc2n1`, 0.9 µM.
In turn, `OC(CN1CCN(Cc2ccccc2)CC1)Cn1c(-c2ccccc2)c(-c2ccccc2)c2ccccc21` (stereo not given) came in with a concentration for half-maximal inhibition (IC50) of 0.71 µM. The IC50 values of the last two compounds are within 1.5-fold of each other.
In the case of `CC1(C)OC[C@]2(C)[C@@H](CC[C@]3(C)C4=CC(=O)CCC4CC[C@@H]23)O1` (stereo not given in full) it was 0.28 µM; in that of `COc1cc2c(cc1C(F)(F)F)N(C(=O)Nc1cc(Br)cc(-c3cccnc3)c1)CC2`, 0.86 µM.
In the case of `CCNc1cc(C(=O)N[C@@H](Cc2ccccc2)[C@H](O)CNCc2cc(OC)cc(OC)c2)cc(N2CCCS2(=O)=O)c1` it was 0.04 µM; in that of `Cc1cccc2[nH]c(-c3ccc(-c4ccc(CN5CCN(c6ccc(C#N)cn6)CC5)cc4)s3)nc12`, 1.13 µM; in that of `O=C(/C=C/c1ccc(Cl)c(Cl)c1)NCCCCCN1CCC(c2c[nH]c3ccccc23)CC1`, 0.78 µM.
In the case of `N#Cc1ccc(CN2CCCN(Cc3cccc(NC(=O)c4ccc(-c5ccccc5)cc4)c3)CC2)cc1` it was 1.02 µM.
For the compound `O=C(NC1CCN(Cc2ccccc2)CC1)c1cc(-c2ccncc2)nc2ccc(Cl)cc12`, the 50% inhibitory concentration (IC50) turned out to be 0.92 µM.
In the case of `CC(=O)Nc1ccc(CN2CCC(NC(=O)c3cc(-c4ccc(N(C)C)cc4)cs3)C2)cc1` (stereo not given) it was 1.17 µM; in that of `O=C(NOCc1ccccc1)c1cc(Cl)ccc1O`, 1.1 µM; in that of `C=CCc1cc(Cc2cnc(N)nc2N)cc(CCC)c1OC`, 1.36 µM.
Compound `O=c1[nH]c2c(c(O)c1[N+](=O)[O-])CCC2` yielded an IC50 of 1.05 µM.
In the case of `Cn1cncc1CCN(Cc1ccc(-c2ccc(C(F)(F)F)cc2)cc1)C(=O)Cn1c(SCc2cccc(F)c2F)cc(=O)c2ccccc21` it was 0.99 µM.
In the case of `CCC(=O)N[C@@H]1CN[C@@H](C#Cc2cc3c(Nc4ccc(OCc5cccc(F)c5)c(Cl)c4)ncnc3s2)C1` it was 1.12 µM.
In the case of `CN(C)Cc1ccc(-c2cccc(NC(=O)c3cccc(Cl)c3)c2)cc1` it was 0.69 µM; in that of `C#Cc1cccc(NC(=O)[C@H](CC2CCCCC2)Nc2ccc(C#N)c3ccccc23)c1`, 0.59 µM; in that of `Cc1cccc2[nH]c(-c3cccc(-c4cccc(NC(=O)Nc5ccc(Cl)c(Cl)c5)c4)c3)nc12`, 0.37 µM.
Consider `Cc1ccc(O)cc1Nc1ccnc2ccc(-c3cccc(CNCCN(C)C)c3)cc12`, for which the IC50 was 0.61 µM.
Regarding `c1ccc(Oc2ccc(Nc3ccnc4ccc(-c5ccco5)cc34)cc2)cc1`, the IC50 came out at 0.93 µM. This IC50 lies about 1.5-fold higher than the previous one.
In the case of `CC1(CCc2ccccc2)N=C(N)N=C(N)C1c1ccc(Cl)c(Cl)c1` (stereo not given) it was 0.32 µM; in that of `O=C(CCc1ccccc1)N[C@H](Cc1c[nH]c2ccccc12)C(=O)N1CCC(NCc2ccc3c(c2)Cc2ccccc2-3)CC1`, 0.91 µM; in that of `CCCN(CC1CC1)c1ncc(-c2ccccc2CNCc2ccccc2O)cn1`, 0.5 µM.
In the case of `NC(=NCc1ccccc1)Nc1nc(-c2ccc(OCCCn3ccnc3)cc2)cs1` it was 0.25 µM; in that of `CNCCNCc1cccc(-c2ccc(-c3nc4c(C)cccc4[nH]3)cc2)c1`, 0.8 µM; in that of `O=C(N[C@@H](Cc1ccccc1)[C@H](O)CNC1CCc2ccccc2C1)c1cc(C2CCCC2)cc(N2CCCC2=O)c1` (stereo not given in full), 0.16 µM.
In the case of `CCc1cn2c3c(cc(C(=O)N[C@@H](Cc4ccccc4)[C@H](O)CNCc4ccccc4C)cc13)N(C)S(=O)(=O)CC2` it was 0.27 µM.
The compound `N#Cc1cccc(CN2CCCN(Cc3ccc(C(=O)Nc4ccc(Cl)cc4)cc3)CC2)c1` registered a 50% inhibitory concentration (IC50) of 0.88 µM.
In the case of `O=C(/C=C/c1ccc(Cl)c(Cl)c1)NCCCCCN1CCCN(C(=S)Nc2cccc(Cl)c2)CC1` it was 1.05 µM; in that of `CCCc1cc(Cc2cnc(N)nc2N)ccc1OCCCCCC(=O)OCC`, 0.5 µM.
In the case of `Cc1ccc(Cc2cnc(NCCSCc3ccc(CN4CCOCC4)o3)[nH]c2=O)cn1` it was 1.07 µM.
In the case of `O=C(NC1CCN(Cc2ccc3c(c2)OCCO3)CC1)c1ccc(-c2cccc(C(F)(F)F)c2)s1` it was 1.83 µM; in that of `FC(F)(F)c1ccc(CNC2CCN(CC3CCCCC3)CC2)cc1`, 0.93 µM.
Consider `CCCCn1c(Sc2ccc(C#N)c([N+](=O)[O-])c2)nnc1-c1cccc(Cl)c1`, for which the IC50 turned out to be 0.76 µM.
In the case of `CC(C)NCc1ccc(-c2cccc(NC(=O)c3ccc(Cl)cc3)c2)cc1` it was 0.29 µM.
In turn, `CCn1cnc2c(N3CCCCS3(=O)=O)cc(C(=O)N[C@@H](Cc3ccccc3)[C@H](O)CNC3CCOCC3)cc21` had an IC50 of 0.71 µM. Against the preceding compound, the IC50 is about 2.4-fold higher.
In the case of `COc1ccccc1NC(=O)Nc1cccc(-c2cccc(-c3nc4ccc(C(F)(F)F)cc4[nH]3)c2)c1` it was 0.12 µM.
Take `CC(C)COc1ccc(Cl)cc1Cc1nc(-c2nc3nc(N4CCN(C)CC4)ccc3[nH]2)cs1`: the half-maximal inhibitory concentration (IC50) is 0.75 µM.
In the case of `Oc1cc(Nc2ccnc3cc(-c4ccc(CN5CCCCC5)o4)c(Cl)cc23)c(Cl)cc1F` it was 1.26 µM; in that of `COc1cc2c(cc1OC)CN(CCCCNC(=O)c1ccc(NC(=O)c3cc(Cl)cc(Cl)c3)cc1)CC2`, 0.78 µM; in that of `COc1ccc2nc3cc(Cl)ccc3c(NCCN3CCN(C)CC3)c2c1`, 0.12 µM.
In the case of `CCOC(=O)c1c(CN2CCCC2)n(-c2ccccc2)c2cc(Br)c(O)cc12` it was 1.01 µM; in that of `c1ccc(COc2ccc(Nc3ncnc4cnc(-c5ccc(CN6CCCCC6)o5)cc34)cc2)cc1`, 0.97 µM; in that of `COCCSc1ccc(CC(C)NCC(O)c2cccc(Cl)c2)cc1` (stereo not given), 0.76 µM.
In the case of `Cc1cccc2[nH]c(-c3ccc(-c4ccc(NC(=O)C(C)CN5CCN(C)CC5)cc4)s3)nc12` (stereo not given) it was 0.73 µM; in that of `CN(C)CCNC(=O)N1CCCN(c2ncnc3cc(-c4ccc(Cl)cc4)sc23)CC1`, 1.02 µM.
As for `Cc1cccc2[nH]c(-c3ccc(-c4cccc(CNCc5cccc(N)c5)c4)cc3)nc12`, the IC50 was found to be 0.39 µM.
In the case of `Cc1cccc(Nc2nc(N)c3ccccc3n2)c1` it was 0.57 µM; in that of `Cc1cc(N)c2cc(NC(=O)/C=C/c3ccccc3)ccc2n1`, 0.76 µM; in that of `CCCC(C)NC(=O)[C@H]1CNCCN1C(=O)CCCc1ccccc1` (stereo not given in full), 0.19 µM.
In the case of `Cc1[nH]c2ccccc2c1C1=CCN(CCN2CCOc3c(Br)cccc3C2=O)CC1` it was 0.8 µM; in that of `Cc1cccc2[nH]c(-c3ccc(-c4ccc(CN5CCCC(O)C5)cc4)s3)nc12` (stereo not given), 0.83 µM; in that of `CC(C)(C)Nc1cc(C(=O)N[C@@H](Cc2ccccc2)[C@H](O)CNC2CCOCC2)cc(N2CCCCS2(=O)=O)c1`, 0.15 µM.
As to `Oc1cccc(Nc2ccnc3cc(-c4cc5ccccc5o4)ccc23)c1`, the IC50 was 0.76 µM.
The compound `COc1ccc2nccc([C@@H](O)CN3CCC(NC(=O)c4cc5ccccc5[nH]4)CC3)c2c1` yielded an IC50 of 0.97 µM.
In the case of `COC(=O)c1ccc(CC(C)NCC(O)c2cccc(C(F)(F)F)c2)cc1` (stereo not given) it was 0.97 µM and 1.15 µM; in that of `COc1cccc(OC2CCN(C(=O)c3ccc(-c4ccc(N5CCCC5=O)cc4C)cc3)CC2)c1`, 1.01 µM.
In the case of `CCCCc1ccc(-c2nc(NC(=O)Nc3nc(-c4ccccc4)[nH]c3C(=O)OCC)c(C(=O)OCC)[nH]2)cc1` it was 0.75 µM; in that of `CC(C)(C)c1ccc(CNC(=O)/C=C/c2ccc(-c3nc4ccc(C(C)(C)C)cc4[nH]3)cc2)cc1`, 0.54 µM.
In the case of `CC(C)CNCc1ccc(-c2cccc(CN(C(=O)Nc3ccccc3)C3CCN(Cc4ccccc4)CC3)c2)cc1` it was 0.41 µM; in that of `C[C@@H]([C@@H](CCCc1ccc(Cl)cc1)C(=O)N[C@H](C(=O)Nc1cccnc1)C(C)(C)C)N(O)C=O`, 0.72 µM; in that of `CC(=O)Nc1ccc(CN2CCC(CNC(=O)c3cc(-c4cccc(Cl)c4)cs3)C2)cc1` (stereo not given), 1.12 µM.
In turn, `CC1CN(c2ccc(NC(=O)c3cccs3)cc2)CCN1Cc1cccc(F)c1` (stereo not given) displayed a 50% inhibitory concentration (IC50) of 0.49 µM.
In the case of `CNC(=O)c1cnc(Nc2ccc(N3CCN(C)CC3)cc2)nc1Nc1cccc([N+](=O)[O-])c1` it was 0.29 µM; in that of `O=c1cc(NCCC(CNCc2cc3ccccc3o2)NCc2cc(Br)cc(Br)c2)[nH]c2ccccc12` (stereo not given), 1.21 µM; in that of `O=C(NCC(=O)N1CCC[C@H]1C(=O)O)[C@@H](Cc1ccccc1)NC(=O)[C@@H]1CCCN1C(=O)CCCc1ccc(O)cc1` (HELM PEPTIDE1{[O=C(CCCc1ccc(O)cc1)[*:2]].P.[dF].G.P}$$$$V2.0), 1.05 µM.
Consider `CC=CC(=O)N1CCN(c2nccc(-c3ccc(C(C)(C)C)cc3)n2)CC1`, for which the IC50 came to 1.08 µM. The IC50 values of the last two compounds are within 1.5-fold of each other.
In the case of `Cc1ccc(NC(=O)c2ccc(CN3CCCN(CC4CCCCC4)CC3)cc2)cc1C` it was 1.02 µM; in that of `CC(C)C[C@H](NC(=O)c1cc2ccccc2s1)C(=O)N[C@H]1CCN(Cc2ccc(I)c(OCCN3CCCC3)c2)C1`, 1.35 µM; in that of `O=C(Cc1ccsc1)NCC(c1ccccc1Cl)c1c[nH]c2ccccc12` (stereo not given), 0.95 µM.
In the case of `COc1ccc(Nc2nccc(N3CCC(NC(=O)Nc4ccc5c(c4)OCO5)C3)n2)cc1` (stereo not given) it was 0.6 µM.
In the case of `CCCCNCc1ccc(-c2nc(CN(C(=O)Nc3cc([N+](=O)[O-])ccc3F)C3Cc4ccccc4C3)cs2)cc1` it was 1.1 µM; in that of `CCCCCCNc1c2ccccc2nc2ccccc12`, 0.95 µM.
In the case of `COCCNCc1nc(-c2ccc3c(Nc4ccc(Cl)cc4F)ccnc3c2)cs1`, the IC50 worked out at 1.08 µM.
In the case of `Cc1cccc(-c2ccc(CNC3CCN(CC4Cn5c(=O)ccc6ccc(F)c4c65)CC3)cn2)c1` (stereo not given) it was 1.53 µM; in that of `NC(=O)CNC(=O)CCCN=C(N)N`, 0.17 µM.
In the case of `Cc1cccc2[nH]c(-c3cccc(-c4cccc(CNC(C)C)c4)c3)nc12` it was 0.34 µM; in that of `Cc1ccc2c(O)c([N+](=O)[O-])c(=O)[nH]c2c1`, 0.42 µM.
